BindingDB's records for doi:10.1016/j.ejmech.2020.112602 (Utah State University, 2020)

Experiments:
[1] = Inhibition of human Cx43 expressed in Escherichia coli LB2003 cells in medium containing 8 mM K+ and 10 uM IPTG by measuring cell growth after 18 hrs by plate reader
[2] = Inhibition of human Cx26 expressed in Escherichia coli LB2003 cells in medium containing 4 mM K+ and 500 uM IPTG by measuring cell growth after 18 hrs by plate reader

Row | Structure (SMILES) | IC50 [1] | IC50 [2]
1 | N[C@@H]1[C@@H](O)[C@@H](O[C@@H]2[C@@H](O)[C@H](O[C@H]3O[C@H](CNC(=O)CCCc4cc5ccc6cccc7ccc(c4)c5c67)[C@@H](O)[C@H](O)[C@H]3O)[C@@H](N)C[C@H]2N)O[C@H](CO)[C@H]1O | 8.6 µM | 18.6 µM
2 | CCCCCCCCCCCC(=O)NC[C@H]1O[C@H](O[C@H]2[C@H](O)[C@@H](O[C@H]3O[C@H](CO)[C@@H](O)[C@H](N)[C@H]3O)[C@H](N)C[C@@H]2N)[C@H](O)[C@@H](O)[C@@H]1O |  | 66.7 µM
3 | Cc1ccc(OC[C@H]2O[C@H](O[C@@H]3[C@@H](O)[C@H](O[C@H]4O[C@H](CN)[C@@H](O)[C@H](O)[C@H]4O)[C@@H](N)C[C@H]3N)[C@H](O)[C@@H](N)[C@@H]2O)cc1 | 6.2 µM | 49.4 µM
4 | NC[C@H]1O[C@H](O[C@H]2[C@H](O)[C@@H](O[C@H]3O[C@H](COCc4ccc(F)cc4)[C@@H](OCc4ccc(F)cc4)[C@H](N)[C@H]3O)[C@H](N)C[C@@H]2N)[C@H](O)[C@@H](O)[C@@H]1O | 26.6 µM | 
5 | Cc1ccc(COC[C@H]2O[C@H](O[C@@H]3[C@@H](O)[C@H](O[C@H]4O[C@H](CN)[C@@H](O)[C@H](O)[C@H]4O)[C@@H](N)C[C@H]3N)[C@H](O)[C@@H](N)[C@@H]2OCc2ccc(C)cc2)cc1 | 3.1 µM | 
6 | COc1ccc(COC[C@H]2O[C@H](O[C@@H]3[C@@H](O)[C@H](O[C@H]4O[C@H](CN)[C@@H](O)[C@H](O)[C@H]4O)[C@@H](N)C[C@H]3N)[C@H](O)[C@@H](N)[C@@H]2OCc2ccc(OC)cc2)cc1 | 4.1 µM | 

Continued by falling IC50 [1], values first:

Row | IC50 [1] | IC50 [2] | Structure (SMILES)
7 | 17.7 µM | 6 µM | NC[C@H]1O[C@H](O[C@H]2[C@H](O)[C@@H](O[C@H]3O[C@H](COc4ccc(-c5nc6ccccc6[nH]5)cc4)[C@@H](O)[C@H](N)[C@H]3O)[C@H](N)C[C@@H]2N)[C@H](O)[C@@H](O)[C@@H]1O
8 | 17.1 µM |  | NC[C@H]1O[C@H](O[C@H]2[C@H](O)[C@@H](O[C@H]3O[C@H](COCc4ccc(Cl)cc4)[C@@H](OCc4ccc(Cl)cc4)[C@H](N)[C@H]3O)[C@H](N)C[C@@H]2N)[C@H](O)[C@@H](O)[C@@H]1O
9 | 8.9 µM | 17.2 µM | NC[C@H]1O[C@H](O[C@H]2[C@H](O)[C@@H](O[C@H]3O[C@H](COc4ccc(Cl)cc4)[C@@H](O)[C@H](N)[C@H]3O)[C@H](N)C[C@@H]2N)[C@H](O)[C@@H](O)[C@@H]1O
10 | 8.9 µM | 12.7 µM | N[C@@H]1[C@@H](O)[C@@H](O[C@@H]2[C@@H](O)[C@H](O[C@H]3O[C@H](CNC(=O)c4ccccc4-c4c5ccc(=O)cc-5oc5cc(O)ccc45)[C@@H](O)[C@H](O)[C@H]3O)[C@@H](N)C[C@H]2N)O[C@H](CO)[C@H]1O
11 | 6.2 µM |  | NC[C@H]1O[C@H](O[C@H]2[C@H](O)[C@@H](O[C@H]3O[C@H](COCc4ccc5ccccc5c4)[C@@H](OCc4ccc5ccccc5c4)[C@H](N)[C@H]3O)[C@H](N)C[C@@H]2N)[C@H](O)[C@@H](O)[C@@H]1O
12 | 5.5 µM |  | NC[C@H]1O[C@H](O[C@H]2[C@H](O)[C@@H](O[C@H]3O[C@H](COCc4cccc(-c5ccccc5)c4)[C@@H](OCc4cccc(-c5ccccc5)c4)[C@H](N)[C@H]3O)[C@H](N)C[C@@H]2N)[C@H](O)[C@@H](O)[C@@H]1O
